Data taken from PMC6925260 (Nature Communications, 2019).
Numbering of substitutions follows the chain as printed. Where two headings read alike, the source gives them in different places.

Legend:
[1] = target: T1, N340A PPARγ LBD / SMRT peptide (Homo sapiens, UniProt P37231, N340A); experiment: Fluorescence anisotropy, SMRT peptide to N340A PPARγ LBD; format: binding
T1 construct: 6× His tag with TEV recognition site (N, cleaved yes); made in house; host or cells: E. coli BL21 (DE3) gold
T1 sequence (P37231 230-505 N340A): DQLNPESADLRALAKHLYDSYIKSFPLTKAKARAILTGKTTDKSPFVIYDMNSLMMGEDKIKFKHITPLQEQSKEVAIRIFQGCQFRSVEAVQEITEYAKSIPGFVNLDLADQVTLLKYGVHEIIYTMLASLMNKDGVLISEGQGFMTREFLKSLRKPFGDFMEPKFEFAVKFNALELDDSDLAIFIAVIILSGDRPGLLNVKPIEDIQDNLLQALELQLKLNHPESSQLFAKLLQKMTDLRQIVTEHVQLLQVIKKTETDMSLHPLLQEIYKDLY
Experimental: (§1) These samples were then plated as usual.

[2] = target: T2, K347A PPARγ LBD / NCoR peptide (Homo sapiens, UniProt P37231, K347A); experiment: Fluorescence anisotropy, NCoR peptide to K347A PPARγ LBD; format: binding; conditions: read-out: NCoR dissociation constant average, K347A; Supp. Fig. 11
T2 construct: 6× His tag with TEV recognition site (N, cleaved yes); made in house; host or cells: E. coli BL21 (DE3) gold
Experimental: as §1

PPARg LBD DH12 = experiment: Supplementary Figure 11: fluorescence anisotropy dissociation constants, DH12 (peptide not given); format: binding
[3] = target: T3, PPARγC313A,Q322C-BTFA LBD / MED1 peptide (Homo sapiens, UniProt P37231, C313A/Q322C); experiment: Fluorescence anisotropy, MED1 peptide to PPARγC313A,Q322C-BTFA LBD; format: binding; conditions: Supp. Table 2
T3 construct: 6× His tag with TEV recognition site (N, cleaved yes); made in house; host or cells: E. coli BL21 (DE3) gold
Experimental: as §1

[4] = target: PPARγ LBD (wt) / CBP peptide (Homo sapiens, UniProt P37231); experiment: Fluorescence anisotropy, CBP peptide to wt PPARγ LBD
[5] = target: T4, PPARγ LBD (wt) / NCoR CoRNR box peptide (Homo sapiens, UniProt P37231); experiment: Fluorescence anisotropy, NCoR peptide to wt PPARγ LBD (alone or ligand bound); format: binding
T4 construct: 6× His tag with TEV recognition site (N, cleaved yes); made in house; host or cells: E. coli BL21 (DE3) gold
T4 sequence (P37231 230-505): T1 sequence (P37231 230-505 N340A) with A111N
Experimental: as §1

wt PPARg LBD = experiment: Supplementary Figure 11: fluorescence anisotropy dissociation constants, wt PPARγ LBD (peptide not given); format: binding
K347A PPARg LBD = experiment: Supplementary Figure 11: fluorescence anisotropy dissociation constants, K347A (peptide not given); format: binding
PPARγ = conditions: Supp. Table 9 summary; comparator apo/vehicle; ref 1,4 (supplement); cited from earlier work
[6] = target: T5, K329A PPARγ LBD / NCoR peptide (Homo sapiens, UniProt P37231, K329A); experiment: Fluorescence anisotropy, NCoR peptide to K329A PPARγ LBD; format: binding; conditions: read-out: NCoR dissociation constant average, K329A; Supp. Fig. 11
T5 construct: 6× His tag with TEV recognition site (N, cleaved yes); made in house; host or cells: E. coli BL21 (DE3) gold
Experimental: as §1

[7] = target: T6, PPARγ LBD (wt) / MED1 LxxLL peptide (Homo sapiens, UniProt P37231); experiment: Fluorescence anisotropy, MED1 peptide to wt PPARγ LBD (alone or ligand bound); format: binding
T6 construct: 6× His tag with TEV recognition site (N, cleaved yes); made in house; host or cells: E. coli BL21 (DE3) gold
T6 sequence (P37231 230-505): T1 sequence (P37231 230-505 N340A) with A111N
Experimental: as §1

[8] = target: T7, N340A PPARγ LBD / NCoR peptide (Homo sapiens, UniProt P37231, N340A); experiment: Fluorescence anisotropy, NCoR peptide to N340A PPARγ LBD; format: binding; conditions: read-out: NCoR dissociation constant average, N340A; Supp. Fig. 11
T7 construct: 6× His tag with TEV recognition site (N, cleaved yes); made in house; host or cells: E. coli BL21 (DE3) gold
Experimental: as §1

[9] = target: T8, K329A PPARγ LBD / SMRT peptide (Homo sapiens, UniProt P37231, K329A); experiment: Fluorescence anisotropy, SMRT peptide to K329A PPARγ LBD; format: binding
T8 construct: 6× His tag with TEV recognition site (N, cleaved yes); made in house; host or cells: E. coli BL21 (DE3) gold
T8 sequence (P37231 230-505 K329A): T1 sequence (P37231 230-505 N340A) with K100A, A111N
Experimental: as §1

[10] = target: PPARγ LBD, deletion of helix 12 / NCoR peptide; experiment: Fluorescence anisotropy, NCoR peptide to helix 12 deleted (DH12) PPARγ LBD; format: binding; conditions: read-out: NCoR dissociation constant average, DH12; Supp. Fig. 11
Experimental: as §1

PPARg LBD N340A = experiment: Supplementary Figure 11: fluorescence anisotropy dissociation constants, N340A (peptide not given)
K329A PPARg LBD = experiment: Supplementary Figure 11: fluorescence anisotropy dissociation constants, K329A (peptide not given)
[11] = data set FP 3 15 18 Inverse agonism part 2, read-out: dissociation constant
[12] = data set 2 28 18 FP inverse agonism, read-out: dissociation constant
[13] = data set FP K329A K347A 3 20 18, read-out: dissociation constant
[14] = read-out: dissociation constant, data set FP 3 15 18 Inverse agonism part 2

With O=C(Nc1ccccc1)c1cc([N+](=O)[O-])ccc1Cl [GW9662] the “SMRT Kd, wt vs N340A mean difference ± SE” value ([1]; Supp. Fig. 12) was -323 ±631, the Kd ([1]; Supp. Fig. 12, read-out: SMRT dissociation constant average, N340A) was 957 nM and the Kd ([1]; run SMRT FP 4 5 18, read-out: SMRT dissociation constant, N340A) was 855 nM. For the same molecule, the Kd ([1]; run SMRT FP 4 6 18, read-out: SMRT dissociation constant, N340A) was 1200 nM, the Kd ([1]; run SMRT FP 4 10 18, read-out: SMRT dissociation constant, N340A) was 811 nM and the Kd [2] was 590 nM. The Kd (PPARg LBD DH12; data set 6-23-17, read-out: dissociation constant) was 66.2 nM, the Kd (PPARg LBD DH12; data set 6-26-17 FP, read-out: dissociation constant) was 155 nM and the Kd (PPARg LBD DH12; [11]) was 27.1 nM. The Kd (PPARg LBD DH12; data set PPARg LBD DH12 9-26-17, read-out: dissociation constant) was 145 nM, the Kd (PPARg LBD DH12; data set PPARg LBD DH12 10-24-17, read-out: dissociation constant) was 73.1 nM and the “MED1 fold change (labeled/wt), PPARγC313A,Q322C-BTFA” value [3] was 2.3. For the same molecule, the Kd ([3]; read-out: MED1 Kd, PPARγC313A,Q322C-BTFA, covalent ligands T0070907, GW9662 expected to be apo-like) was 9750 nM, the Kd ([4]; read-out: CBP Kd, ligand-bound, run 1) was 4700 nM and the Kd ([4]; read-out: CBP Kd, ligand-bound, run 2) was 3350 nM. For the same molecule, the “NCoR Kd mean difference ±SE, Apo vs ligand” value ([5]; Supp. Table 3, wt, one-way ANOVA, Dunnett's, 11 df) was 150 ±39, the “effect on corepressor CoRNR box peptide affinity” value ([5]; Supp. Table 9 summary, NCoR and SMRT, comparator apo) was “é” and the Kd ([5]; read-out: NCoR Kd, wt, Supp. Table 2, wt values not from the same experiment as PPARγC313A,Q322C-BTFA (first wt column)) was 273 nM. It also gave a Kd ([5]; read-out: NCoR Kd, WT, ligand-bound, run 1) of 219 nM, a Kd ([5]; read-out: NCoR Kd, WT, ligand-bound, run 2) of 157 nM and a Kd ([5]; read-out: NCoR WT Kd, Supp. Table 1, wt PPARγ LBD, FITC peptide 50 nM, fluorescence anisotropy, pH 7.4, 2 h room temperature, average of two technical replicates) of 420 nM. The Kd ([5]; read-out: NCoR dissociation constant average, wt, Supp. Fig. 11) was 255 nM, the “effect on affinity/recruitment of NCoR CoRNR peptide” value ([5]; versus apo) was “increase affinity” and the Kd (wt PPARg LBD; average of the listed data sets, read-out: dissociation constant, Average wt values) was 255 nM. The Kd (wt PPARg LBD; [12]) was 242 nM, the Kd (wt PPARg LBD; [11]) was 269 nM and the Kd (wt PPARg LBD; [13]) was 254 nM. For the same molecule, the Kd (K347A PPARg LBD; [12]) was 692 nM, the Kd (K347A PPARg LBD; [13]) was 488 nM and the “effect on reporter expression in cells” value (PPARγ) was “no effect”. The Kd [6] was 1820 nM, the “effect on coactivator LxxLL box peptide affinity” value ([7]; Supp. Table 9 summary, comparator apo) was “no effect” and the Kd ([7]; read-out: MED1 Kd, wt, Supp. Table 2, wt values not from the same experiment as PPARγC313A,Q322C-BTFA (first wt column)) was 4220 nM. The Kd ([7]; read-out: MED1 WT Kd, Supp. Table 1, wt PPARγ LBD, FITC peptide 50 nM, fluorescence anisotropy, pH 7.4, 2 h room temperature) was 4900 nM, the Kd [8] was 485 nM and the “SMRT Kd, wt vs K329A mean difference ± SE” value ([9]; Supp. Fig. 12) was -1916±631. It also gave a Kd ([9]; Supp. Fig. 12, read-out: SMRT dissociation constant average, K329A) of 2550 nM, a Kd ([9]; run SMRT FP 4 5 18, read-out: SMRT dissociation constant, K329A) of 1330 nM and a Kd ([9]; run SMRT FP 4 6 18, read-out: SMRT dissociation constant, K329A) of 1850 nM. It also gave a Kd ([9]; run SMRT FP 4 10 18, T0070907 value 5903 excluded by the authors, read-out: SMRT dissociation constant, K329A) of 4470 nM, a Kd [10] of 93 nM and a Kd (PPARg LBD N340A; read-out: dissociation constant, Average N340A values, average of the listed data sets) of 485 nM. The Kd (PPARg LBD N340A; [14]) was 342 nM, the Kd (PPARg LBD N340A; read-out: dissociation constant, data set PPARg LBD N340A 12 11 17) was 628 nM and the “Kd mutant/Kd wt” value (K329A PPARg LBD; ratio of averages) was 7.158. The Kd (K329A PPARg LBD; read-out: dissociation constant, Average K329A values, average of the listed data sets) was 1820 nM, the Kd (K329A PPARg LBD; [14]) was 1800 nM and the Kd (K329A PPARg LBD; read-out: dissociation constant, data set FP K329A K347A 3 20 18) was 1850 nM.
